Results published in PubChem BioAssay (NCI).
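Interpolation was linear, between the two tested concentrations surrounding the appropriate level; five concentrations were tested over 48 hours in 96-well plates. GI50 is the concentration that inhibits growth by half. TGI: total growth inhibition.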

Legend:
Experiment in all cases: NCI-60 cell line screen, 48 h
A549 NSCLC = tested on: A549 NSCLC
CAKI-1 renal = tested on: CAKI-1 renal
CCRF-CEM leukemia = tested on: CCRF-CEM leukemia
HCT-15 colon = tested on: HCT-15 colon
K-562 leukemia = tested on: K-562 leukemia
M14 melanoma = tested on: M14 melanoma
MALME-3M melanoma = tested on: MALME-3M melanoma
SF-295 CNS = tested on: SF-295 CNS
U251 CNS = tested on: U251 CNS
UACC-62 melanoma = tested on: UACC-62 melanoma

| SMILES | TGI (A549 NSCLC) | TGI (CAKI-1 renal) | TGI (CCRF-CEM leukemia) | TGI (HCT-15 colon) | TGI (K-562 leukemia) | TGI (M14 melanoma) | TGI (MALME-3M melanoma) | TGI (SF-295 CNS) | TGI (U251 CNS) | TGI (UACC-62 melanoma) | GI50 (A549 NSCLC) | GI50 (CAKI-1 renal) | GI50 (CCRF-CEM leukemia) | GI50 (HCT-15 colon) | GI50 (M14 melanoma) | GI50 (MALME-3M melanoma) | GI50 (SF-295 CNS) | GI50 (U251 CNS) | GI50 (UACC-62 melanoma) |
| --- | --- | --- | --- | --- | --- | --- | --- | --- | --- | --- | --- | --- | --- | --- | --- | --- | --- | --- | --- |
| NS(=O)(=O)c1nnc(NC(=O)Nc2ccc(Cl)c(Cl)c2)s1 | > 100 µM | 78.8 µM | 37.3 µM | 50.7 µM | > 100 µM | 32.3 µM | 39.9 µM | > 100 µM | > 100 µM | 31.2 µM |  |  |  |  |  |  |  |  |  |
| COc1ccc(/C=c2\sc3n(c2=O)CCN=3)cc1 | > 100 µM |  | > 100 µM | > 100 µM | > 100 µM | > 100 µM | > 100 µM | > 100 µM | > 100 µM | > 100 µM |  |  |  |  |  |  |  |  |  |
| CC1=C(Cl)C=CP(=O)(Oc2ccccc2)C1 (stereo unspecified) | > 100 µM | > 100 µM | > 10 µM | > 100 µM | > 10 µM | 38.2 µM | > 100 µM | > 100 µM | > 100 µM | > 100 µM |  |  |  |  |  |  |  |  |  |
| COC(=O)[C@@H](O)[C@](O)(CCC(C)C)C(=O)O[C@@H]1C(OC)=C[C@]23CCCN2CCc2cc4c(cc2[C@H]13)OCO4 | 5.19 µM | 7.36 µM | > 27 µM | 7.33 µM | 23 µM |  | 1.94 µM | 5.68 µM | 6.05 µM | 29.4 µM |  |  |  |  |  |  |  |  |  |
| Oc1ccc(-c2nc3ccc(Br)cc3s2)cc1 | 68.9 µM | 33.7 µM | 16.5 µM | 67.5 µM | 73.1 µM | 39.6 µM | 90.9 µM | 33 µM | 50.8 µM | 27.4 µM |  |  |  |  |  |  |  |  |  |
| COC(=O)c1c(C)nc2c1cc(O)c1[nH]c(C)c(C)nc12 | > 100 µM | > 100 µM | > 100 µM | > 100 µM | > 100 µM | > 100 µM | > 100 µM | > 100 µM | > 100 µM | > 100 µM |  |  |  |  |  |  |  |  |  |
| O=C(N/N=C/c1ccc(Cl)cc1)c1c(Cl)c(Cl)c(Cl)c(Cl)c1-c1nc2ccccc2[nH]1 | > 100 µM | > 100 µM | > 100 µM | > 100 µM | > 100 µM | > 100 µM | > 100 µM | > 100 µM |  | > 100 µM |  |  |  |  |  |  |  |  |  |
| O=C1CCCCC1CN1CCCCC1 (stereo unspecified) | > 100 µM | > 100 µM | > 100 µM | > 100 µM | > 100 µM | > 100 µM | > 100 µM | > 100 µM | > 100 µM | > 100 µM |  |  |  |  |  |  |  |  |  |
| CCN(CC)C(=S)N/N=C/c1cc([N+](=O)[O-])ccc1O | 54 µM |  | 8.06 µM | 31.6 µM | 18.1 µM | 29.1 µM | 23.3 µM | > 100 µM | > 100 µM | 15.4 µM |  |  |  |  |  |  |  |  |  |
| CCCCCC1=CC(=O)C1(Cl)Cl | 71.5 µM | 23.3 µM | 6.15 µM | 32.4 µM | 19.8 µM | 45.6 µM | 27.4 µM | 62.1 µM | 25.1 µM | 32.2 µM |  |  |  |  |  |  |  |  |  |
| Oc1ccccc1CNCc1nc2ccccc2[nH]1 | > 100 µM | > 100 µM | > 100 µM | 12.3 µM | > 100 µM | > 100 µM |  | > 100 µM | > 100 µM | > 100 µM |  |  |  |  |  |  |  |  |  |
| Cc1ccc(N(Cc2ccccc2)Cc2ccccc2)cc1 | > 100 µM | > 100 µM | 65.4 µM | > 100 µM | > 100 µM | > 100 µM | 61 µM | > 100 µM | > 100 µM | > 100 µM |  |  |  |  |  |  |  |  |  |
| Oc1ccc(Cc2cc(Cc3ccc(O)cc3)cc(Cc3ccc(O)cc3)c2)cc1 | > 50 µM |  |  | > 50 µM | > 50 µM | > 50 µM | > 50 µM | > 50 µM | > 50 µM | > 50 µM |  |  |  |  |  |  |  |  |  |
| N[C@@H](CCC(=O)NCP(=O)(O)O)C(=O)O | > 100 µM |  |  | > 100 µM | > 100 µM |  | > 100 µM | > 100 µM | > 100 µM | > 100 µM |  |  |  |  |  |  |  |  |  |
| c1ccc2c(c1)Cn1c-2nc2ccccc21 | > 100 µM | > 100 µM | > 100 µM | > 100 µM | > 100 µM | > 100 µM | > 100 µM | > 100 µM | > 100 µM | > 100 µM |  |  |  |  |  |  |  |  |  |
| O=C(c1ccccn1)C1(N2CCCCC2)CCCCC1 | > 100 µM | > 100 µM | > 100 µM | > 100 µM | > 100 µM | > 100 µM |  | > 100 µM | > 100 µM | > 100 µM |  |  |  |  |  |  |  |  |  |
| CC1(C(=O)O)CCC2(C)CCC3(C)C(=CC(=O)C4C5(C)CCC(O)C(C)(C)C5CCC43C)C2C1 (stereo unspecified) | > 100 µM | > 100 µM | 95.9 µM | 85.4 µM |  | > 100 µM | > 100 µM | 70.1 µM | > 100 µM | 42.5 µM |  |  |  |  |  |  |  |  |  |
| COC(=O)C1CC(C=[N+](C)C)=C(SC)N1C(=O)OCc1ccccc1 (stereo unspecified) | > 100 µM | > 100 µM |  | > 100 µM | > 100 µM | > 100 µM | > 100 µM | > 100 µM | > 100 µM | > 100 µM |  |  |  |  |  |  |  |  |  |
| COc1ccc(CN2C(=O)/C(=C\c3cc(OC)c(OC)c(OC)c3)c3ccccc32)cc1 | > 100 µM | 20.3 µM | > 100 µM | 3.86 µM |  | 5.48 µM | 3.3 µM | 35.8 µM | 2.98 µM | 3.51 µM | 2.51 µM | 2.63 µM | 1.94 µM | 1.9 µM | 2.41 µM | 0.562 µM | 3.79 µM | 1.56 µM | 1.6 µM |
| O=C(Cc1ccc(O)c(O)c1)NCc1c[nH]c2ccccc12 | > 100 µM | > 100 µM | 47.8 µM | > 100 µM | > 100 µM | > 100 µM | 76.5 µM | > 100 µM |  |  |  |  |  |  |  |  |  |  |  |
| C(=C(c1ccc(OC2CCCCO2)cc1)c1ccc(OC2CCCCO2)cc1)c1ccccc1 (stereo unspecified) | 1.69 µM | 1.92 µM | 6.66 µM |  | 2.01 µM | 2 µM | 2.24 µM | 2.51 µM | 2.34 µM | 1.98 µM |  |  |  |  |  |  |  |  |  |
| CCCCCCCC/C=C\CCCCCCCCCCCC(=O)O | > 125 µM | > 117 µM | 57.5 µM | 122 µM | 47.4 µM |  | > 125 µM | 116 µM | 110 µM | 102 µM |  |  |  |  |  |  |  |  |  |
